The numbers were not newly measured in patent publication US10493089B2, “Solid composition comprising amorphous sofosbuvir” (priority 2014, dated 2019), which cites them from elsewhere.

Each structure is given as a SMILES string.

Consider `CC(C)OC(=O)[C@H](C)N[P@](=O)(OC[C@H]1O[C@@H](n2ccc(=O)[nH]c2=O)[C@](C)(F)[C@@H]1O)Oc1ccccc1` [Amorphous sofosbuvir], for which, where the note is “amorphous form compared to crystalline forms”, the “relative humidity at which it deliquesces” value is recorded as “above 50%”.

As for `CC(C)OC(=O)[C@H](C)N[P@](=O)(OC[C@H]1O[C@@H](n2ccc(=O)[nH]c2=O)[C@](C)(F)[C@@H]1O)Oc1ccccc1` [sofosbuvir, (S)-isopropyl 2-(((S)-(((2R,3R,4R,5R)-5-(2,4-dioxo-3,4-dihydropyrimidin-1(2H)-yl)-4-fluoro-3-hydroxy-4-methyltetrahydrofuran-2-yl)methoxy)(phenoxy)phosphoryl)amino)propanoate], under “40° C., relative humidity 75%”, the “behaviour under stress conditions” value is recorded as “deliquesces after a few hours”.
